Reference: the supplement of paper PMC11208160

Test: recombinant barcode read abundance after kanamycin selection (control-corrected) (log10(CPM+1)); higher = more efficient recombination; sequences stand for … in AGTGCAGAGAAAATCGGCCAGTTTTCTCTGCCTGCAGTCCGCATGCCGT…AGATTTATGCAGCGGACTGCCTTTCTCCCAAAGTGATAAACCGGACAGTATCATGGACCGGTTTTCCCGGTAATCCGTATTTGCAAGGTTGGTTTCACT; site = the 11-nt target
In short: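 Targets were screened in pooled form in E. coli against IS621 bridge RNA target-binding loops. Recombination efficiency is based on barcode counts at recombinant junctions in counts per million, averaged and corrected for the control. Numbers are shown as log10(CPM+1), with duplicate plates on chloramphenicol/ampicillin LB agar (control) or chloramphenicol/ampicillin/kanamycin with 0.1 mM IPTG.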
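Note: IS621 recombinase and bridge RNA in Escherichia coli cells.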

| Sequence | recombinant barcode read abundance (log10) |
| --- | --- |
| GACACAACTTGGGTTCTAACCTGTTGCCT (site GACACAACTAG) | 0 |
| GACACAACTTGGGTTCTAACCTGTTGCCT (site GACCCATCTAG) | 0.338 |
| GACACGCCTTGGGTTCTAACCTGTTGCAT (site GACACGCCTAA) | 0.0135 |
| GACACGCCTTGGGTTCTAACCTGTTGCAT (site GACACGCCTAC) | 0.326 |
| GACACGCCTTGGGTTCTAACCTGTTGCAT (site GACACGCCTAG) | 0.976 |
| GACACGCCTTGGGTTCTAACCTGTTGCAT (site GACACGCCTAT) | 0.189 |
| GACAGGCCTTGGGTTCTAACCTGTTGCCT (site CACGGGCCTAG) | 0.041 |
| GACAGGCCTTGGGTTCTAACCTGTTGCCT (site GACAGGCCTAG) | 0.627 |
| GACATTCCTTGGGTTCTAACCTGTTGCCT (site AACATTCCTAG) | 0.375 |
| GACATTCCTTGGGTTCTAACCTGTTGCCT (site CACATTCCTAG) | 0.113 |
| GACATTCCTTGGGTTCTAACCTGTTGCCT (site GACATTCCTAG) | 0.131 |
| GACATTCCTTGGGTTCTAACCTGTTGCCT (site TACATTCCTAG) | 0.0381 |
| GACCACCCTTGGGTTCTAACCTGTTGCGG (site ATCCACCCTCC) | 1.14 |
| GACCACCCTTGGGTTCTAACCTGTTGCGG (site GACCACCCTCC) | 2.85 |
| GACCCTACTTGGGTTCTAACCTGTTGCCT (site AACCCTACTAG) | 0.111 |
| GACCCTACTTGGGTTCTAACCTGTTGCCT (site CACCCTACTAG) | 0.375 |
| GACCCTACTTGGGTTCTAACCTGTTGCCT (site GACCCTACTAG) | 0.516 |
| GACCCTACTTGGGTTCTAACCTGTTGCCT (site TACCCTACTAG) | 0.119 |
| GACCGGGCTTGGGTTCTAACCTGTTGCCT (site GACCGAGCTAG) | 0.092 |
| GACCGGGCTTGGGTTCTAACCTGTTGCCT (site GACCGCGCTAG) | 0.234 |
| GACCGGGCTTGGGTTCTAACCTGTTGCCT (site GACCGGGCTAG) | 0.592 |
| GACCGGGCTTGGGTTCTAACCTGTTGCCT (site GACCGTGCTAG) | 0.268 |
| GACCGTCCTTGGGTTCTAACCTGTTGCAT (site GACCGTCCTAA) | 0.167 |
| GACCGTCCTTGGGTTCTAACCTGTTGCAT (site GACCGTCCTAC) | 0.479 |
| GACCGTCCTTGGGTTCTAACCTGTTGCAT (site GACCGTCCTAG) | 0.54 |
| GACCGTCCTTGGGTTCTAACCTGTTGCAT (site GACCGTCCTAT) | 1.26 |

| Sequence | recombinant barcode read abundance (log10) |
| --- | --- |
| GACCGTCCTTGGGTTCTAACCTGTTGCCT (site GACCGTCCTAA) | 0.0128 |
| GACCGTCCTTGGGTTCTAACCTGTTGCCT (site GACCGTCCTAC) | 0.1 |
| GACCGTCCTTGGGTTCTAACCTGTTGCCT (site GACCGTCCTAG) | 1 |
| GACCGTCCTTGGGTTCTAACCTGTTGCCT (site GACCGTCCTAT) | 0.263 |
| GACGGATCTTGGGTTCTAACCTGTTGCAT (site GACGGATCTAA) | 0.191 |
| GACGGATCTTGGGTTCTAACCTGTTGCAT (site GACGGATCTAC) | 0.269 |
| GACGGATCTTGGGTTCTAACCTGTTGCAT (site GACGGATCTAG) | 0.233 |
| GACGGATCTTGGGTTCTAACCTGTTGCAT (site GACGGATCTAT) | 1.09 |
| GACGGATCTTGGGTTCTAACCTGTTGCGT (site GACGGATCTAA) | 0.0403 |
| GACGGATCTTGGGTTCTAACCTGTTGCGT (site GACGGATCTAC) | 0.705 |
| GACGGATCTTGGGTTCTAACCTGTTGCGT (site GACGGATCTAG) | 0.569 |
| GACGGATCTTGGGTTCTAACCTGTTGCGT (site GACGGATCTAT) | 1.35 |
| GACGGCACTTGGGTTCTAACCTGTTGCCT (site CGGCTACCTCC) | 0.0844 |
| GACGGCACTTGGGTTCTAACCTGTTGCCT (site GACGGCACTAG) | 0.567 |
| GACGTGCCTTGGGTTCTAACCTGTTGCCG (site CTTAGTACTAT) | 0.11 |
| GACGTGCCTTGGGTTCTAACCTGTTGCCG (site GACGTGCCTCG) | 1.77 |
| GACTAAGCTTGGGTTCTAACCTGTTGCGG (site CTGGGGTCTAA) | 0.0398 |
| GACTAAGCTTGGGTTCTAACCTGTTGCGG (site GACTAAGCTCC) | 2.39 |
| GACTCTCCTTGGGTTCTAACCTGTTGCAG (site GACTCTCCTCA) | 0.147 |
| GACTCTCCTTGGGTTCTAACCTGTTGCAG (site GACTCTCCTCT) | 0.0267 |
| GACTGAGCTTGGGTTCTAACCTGTTGCGG (site AGACAGTCTTG) | 0.046 |
| GACTGAGCTTGGGTTCTAACCTGTTGCGG (site GACTGAGCTCC) | 2.26 |
| GACTGGGCTTGGGTTCTAACCTGTTGCTG (site GACTGGCCTAA) | 0.239 |
| GACTGGGCTTGGGTTCTAACCTGTTGCTG (site GACTGGGCTCA) | 1.58 |
| GACTGTCCTTGGGTTCTAACCTGTTGCGA (site GACCGTCCTTG) | 0.372 |
| GACTGTCCTTGGGTTCTAACCTGTTGCGA (site GACTGTCCTTC) | 1.8 |

| Sequence | recombinant barcode read abundance (log10) |
| --- | --- |
| GACTGTTCTTGGGTTCTAACCTGTTGCCT (site GACTGTTCTAG) | 0.13 |
| GACTGTTCTTGGGTTCTAACCTGTTGCCT (site GCCTGTTCTAG) | 0.0949 |
| GACTGTTCTTGGGTTCTAACCTGTTGCCT (site GGCTGTTCTAG) | 0.202 |
| GACTGTTCTTGGGTTCTAACCTGTTGCCT (site GTCTGTTCTAG) | 0.0588 |
| GACTTGGCTTGGGTTCTAACCTGTTGCCT (site GACTTGACTAG) | 0.0256 |
| GACTTGGCTTGGGTTCTAACCTGTTGCCT (site GACTTGCCTAG) | 0.146 |
| GACTTGGCTTGGGTTCTAACCTGTTGCCT (site GACTTGGCTAG) | 0.146 |
| GACTTGGCTTGGGTTCTAACCTGTTGCCT (site GACTTGTCTAG) | 0.124 |
| GAGAAATCTTGGGTTCTAACCTGTTGCCT (site GAGAAATCTAG) | 0.59 |
| GAGAAATCTTGGGTTCTAACCTGTTGCCT (site GAGACATCTAG) | 0.249 |
| GAGAAATCTTGGGTTCTAACCTGTTGCCT (site GAGAGATCTAG) | 0.0526 |
| GAGAAATCTTGGGTTCTAACCTGTTGCCT (site GAGATATCTAG) | 0.0612 |
| GAGAAGTCTTGGGTTCTAACCTGTTGCCT (site GAGAAGTCTAG) | 1.93 |
| GAGAAGTCTTGGGTTCTAACCTGTTGCCT (site GAGCAGTCTAG) | 0.133 |
| GAGAAGTCTTGGGTTCTAACCTGTTGCCT (site GAGGAGTCTAG) | 0.115 |
| GAGAAGTCTTGGGTTCTAACCTGTTGCCT (site GAGTAGTCTAG) | 0.404 |
| GAGACAGCTTGGGTTCTAACCTGTTGCCT (site GAAACAGCTAG) | 0.367 |
| GAGACAGCTTGGGTTCTAACCTGTTGCCT (site GACACAGCTAG) | 0.0512 |
| GAGACAGCTTGGGTTCTAACCTGTTGCCT (site GAGACAGCTAG) | 1.54 |
| GAGACAGCTTGGGTTCTAACCTGTTGCCT (site GATACAGCTAG) | 0.504 |
| GAGACGGCTTGGGTTCTAACCTGTTGCTT (site GAGACGGCTAA) | 1.22 |
| GAGACGGCTTGGGTTCTAACCTGTTGCTT (site GAGCCGGCTAA) | 0.193 |
| GAGACGGCTTGGGTTCTAACCTGTTGCTT (site GAGGCGGCTAA) | 0.424 |
| GAGACGGCTTGGGTTCTAACCTGTTGCTT (site GAGTCGGCTAA) | 0.206 |
| GAGACTCCTTGGGTTCTAACCTGTTGCAC (site GAGACTCCTCT) | 0.437 |
